From patent US20250281584A1, “ACTIVE VACCINATION FOR THE TREATMENT OF NGF-RELATED DISORDERS” (priority 2024, published 2025)

Assays:
[1] = test system: kaolin-induced inflammation in the hind paw; test: Kaolin model of acute inflammatory pain, lameness score; format: in vivo, dog
Procedure: Kaolin-induced inflammation in the hind paw was performed based on the model described in “Paw inflammation model in dogs for preclinical pharmacokinetic/pharmacodynamic investigations of nonsteroidal anti-inflammatory drugs” (Jeunesse et al., 2011, J Pharmacol Exp Ther., 338 (2): 548-58). Briefly, the dogs were anaesthetized with an intravenous administration of propofol (Propovet, 6.5 mg/kg, Zoetis, France) and kaolin was injected subcutaneously on one paw. On D42, the injections were performed on the right hind paw of all dogs.
Lameness score was assessed on a typical course made by each dog using a numerical rating scale initially developed by Giraudel et al. (Giraudel J M et al., 2005, Br J Pharmacol 146:642-653; Giraudel J M et al., 2005, J Vet Pharmacol Ther 28:275-285) on cats and adapted by Jeunesse et al. (Jeunesse et al., 2011, J Pharmacol Exp Ther., 338 (2): 548-58). […] Lameness score was assessed on live and separately on videos by a different operator. […]

[2] = Ionic strength/salt stability of VLPs in NaCl, native agarose gel electrophoresis; format: physicochemical; settings: NaCl concentrations up to 0.4 M, room temperature, 0.5 mg/ml, pH 7.5
Procedure: FIG. 12: Stability of CMV-Ntt830 VLPs and CMV-Ntt830-E4 VLPs in solution in the presence of different NaCl concentrations. Samples of CMV-Ntt830 VLPs and CMV-Ntt830-E4 VLPs at 0.5 mg/ml were incubated at room temperature in 5 mM Na phosphate, 2 mM EDTA, pH 7.5 with different concentrations of NaCl (the molar concentration of NaCl in each sample is indicated at the bottom of the gels) for up to 2 hours. Samples were analysed by native agarose gel electrophoresis and ethidium bromide staining. Panels A and B show NAGE analysis of CMV-Ntt830 VLP and CMV-Ntt830-E4 VLPsamples respectively. […] Black arrows indicate the position of loading wells within the gels and location of VLPs within the wells and gels. The presence of CMV-Ntt830 VLPs in the loading wells after electrophoresis (panel A) is due to the formation of VLP aggregates which are too large to enter the gel. Integral unaggreagted VLPs migrated into the gel.
The relative stabilities of CMV-Ntt830 VLPs and CMV-Ntt830-E4 VLPs to NaCl were tested by incubating purified VLPs (0.5 mg/ml in 5 mM Na phosphate, 2 mM EDTA, pH 7.5) at room temperature with various NaCl concentrations.

[3] = Processability of VLPs by anion exchange chromatography (aggregation by NAGE); format: physicochemical; settings: DEAE resin, pH 9.0, NaCl elution
Procedure: To test the processability of prior art CMV-Ntt830 VLPs with anion exchange chromatography (AEX), sucrose gradient purified VLPs were prepared as described in Examples 2-4 of WO2016/062720A1. Five mls of CMV-Ntt830 VLPs (1 mg/ml) were buffer exchanged into 5 mM sodium borate pH 9 and loaded onto a 1.0 ml Macro-Prep DEAE Bio-Rad anion exchange cartridge equilibrated with the same buffer. After the loading step, the concentration of NaCl in the elution buffer was increased in step-wise manner (0.1, 0.2, 0.3, 0.4, 0.5, 0.8., 1.0 and 2.0 M). Fractions were collected and measured at 260 nm using Nanodrop spectrophotometer to measure protein and subjected to native agarose gel electrophoresis (NAGE).
In contrast, non-aggregated CMV-Ntt830-E4 VLPs could be readily purified from a crude lysate using AEX. Clarified lysate prepared from E. coli expressing CMV-Ntt830-E4 VLPs (as described in Example 1) in 50 mM citrate, 5 mM Borate buffer pH 9.0 was loaded onto 60 ml of Fracto-DEAE (Merck) in an XK 26/20 column equilibrated with the same buffer and eluted by applying a continuous NaCl gradient from 0 to 1.0 M in the same buffer. The eluate was monitored at A260 nm to measure protein and conductivity measured to monitor salt concentration. The clarified lysate, flow-through and fractions were collected and subjected to NAGE and SDS-PAGE.

[4] = Thermal shift assay with SYPRO Orange (thermal stability of VLPs); format: physicochemical; settings: 0.5 mg/ml VLPs in 5 mM Na phosphate, 2 mM EDTA, pH 7.5, real-time PCR system
Procedure: A thermal shift assay involving temperature-induced denaturation and the fluorescent dye SYPRO® Orange (Sigma, Saint Louis, USA) was used for this purpose. The dye is a naturally quenched in solution but as the VLPs denature with increasing temperatures, SYPRO® Orange interacts with exposed hydrophobic amino acids and cores and emits a fluorescent signal, which is measured by fluorometry. From the resultant melting curve (fluorescent signal vs temperature), the melt peak curves and melting temperature were determined. Solutions containing 0.5 mg/ml of sucrose density gradient purified (as described in Example 1 above) CMV-Ntt830 VLPs or CMV-Ntt830-E4 VLPs in 5 mM Na phosphate, 2 mM EDTA, pH 7.5 were assayed with a real-time PCR system MJ Mini (Bio-Rad, Hercules, USA) using a DNA melting point determination program. Data were analysed using Opticon Monitor Software and melting curves processed at a smooth setting of four.

[5] = in vivo; cited from earlier work
human beta-NGF = human beta-NGF (Homo sapiens, UniProt P01138); test: TF-1 cell based NGF neutralization bioassay, kaolin study
Procedure: (§1) The range of the actual doses of bedinvetmab administered was 0.52-0.97 mg/kg in line with the product information of the marketing authorization. • For the Vaccine group, the dogs received the inventive vaccine candidate, cNGF-CMV-Ntt830-E4 VLP, twice subcutaneously at the back of the neck on day 0 (DO) and day 21 (D21) at the dose of 250 μg VLP-NGF/dog.
Heat-inactivated (56° C. 30 min), serial-diluted sera or antibody standard (canonized monoclonal anti-canine NGF antibody bedinvetmab, Zoetis) were incubated with 5 ng/mL human beta-NGF for 1 hour at room temperature. The NGF-sera/antibody solution was then added to […] starved overnight of growth factors. Cell viability was quantified over the last 7 hour period of a total 72 hour incubation period using the CellTiter 96 AQueous One Solution Cell Proliferation Assay reagent (Promega). Absorbance was measured using a microplate reader (TecanSpark) at a wavelength of 490 nm and a reference wavelength of 700 nm. Titration curves were generated by plotting the difference in absorbance (490 nm-700 nm) versus the dilution factor of the serum sample. Using a 4-Parameter logistic regression curve fit model the IC50 values, the dilution factor corresponding to half maximum OD values, were determined. Serum titers of samples at different time points were defined and depicted as the IC50 values of the curve fit. […]

canine NGF protein [6] = test: NGF total IgG ELISA in dog sera, ACLT+PMM chronic pain study (Example 8); format: in vivo; settings: day 203 sera, group B, monthly s.c. administration
Procedure: NGF- and cNGF-CMV-Ntt830-E4 VLP total specific IgG antibodies in sera were measured by ELISA. ELISA plates were coated with recombinantly produced canine NGF protein (1.0 μg/mL) or cNGF-CMV-Ntt830-E4 VLP (2.0 μg/mL). Serum samples were pre-diluted 1:100, transferred to the ELISA plates and subjected to serial dilutions 3-fold serial dilution steps with a total of 11 dilutions being tested per serum sample. Following incubation, horse-radish peroxidase-(HRP-) labelled goat anti-dog IgG (Jackson ImmunoResearch, cat no 304-035-008, lot 156911) was added. After 2 hours incubation at room temperature, the plates were washed 4 times with 1×PBS/0.05% (v/v) Tween 20. […] Serum titers of samples at different time points were defined and depicted as the EC50 values of the curve fit. Titers below the detection limit of the assay were set to 100 for anti-CMV IgG respectively 50 for anti-NGF IgG, half of the lowest dilution factor (1:200 respectively 1:100) used in the assay. Bedinvetmab was used as a standard in the NGF IgG ELISA. Relative concentrations of anti-NGF IgG antibody in the serum (μg/mL) were calculated by multiplying the EC50 values of the serum with the EC50 values determine for the Bedinvetmab standard. Neutralization titers below the detection limit of the assay were set the equivalent monoclonal antibody concentration of the EC50 value of 50. […]

hNGF binding to TrkA = target: T1, hNGF binding to TrkA (Homo sapiens, UniProt P01138); test: TrkA based NGF binding ELISA, ACLT+PMM study; format: biochemical; settings: day 203, group B, 6 days after administration
T1 construct: 5 ng/ml human mature NGF (R&D, 256-GF-100/CF); purchased R&D (hNGF); SinoBio (TrkA) 256-GF; 11073-H08H
Procedure: ELISA plates were coated with 100 μL/well of 0.5 μg/mL TrkA (SinoBio 11073-H08H) in PBS over night at +4° C. After washing with PBST, plates were blocked using 200 μL/well SuperBlock (ThermoScientific 37518) for 1 hour at room temperature. Serum samples or positive control antibody (caninized monoclonal anti-canine NGF antibody bedinvetmab, Zoetis) were diluted in 2% BSA/PBST and incubated with 1.25 ng/ml hNGF (R&D 256-GF) for 1 hour. After washing the ELISA plates, serum/NGF solution was added to the plates. Plates were incubated for 1 hour at room temperature, washed and HRP-labelled rabbit anti-NGF antibody (SinoBio 11050-RP02-H) at a concentration of 1.5 μg/mL was added. After the plates were washed 4 times with 1×PBS/0.05% (v/v) Tween 20, TMB substrate (ThermoScientific 3401) as the HRP substrate and development reaction was stopped by addition of 2M H2SO4. OD values at 450 nm were measured using a microplate reader (TecanSpark). […] Using a 4-Parameter logistic regression curve fit model the IC50 values, the dilution factor corresponding to half maximum OD 450 nm values, were determined. […] Relative concentrations of neutralizing antibody in the serum (μg/mL) were calculated by multiplying the IC50 values of the serum with the IC50 values determine for the bedinvetmab standard (μg/mL). […]

canine NGF protein [7] = test: NGF total IgG ELISA in dog sera, kaolin study (Example 7); format: in vivo; settings: study day 42; vaccine 250 μg s.c. D0 and D21; bedinvetmab s.c. once D35
Procedure: as §1
Blood samples for serology were collected at the following time points on DO, D21, D70, D84, D105 and D119 for the Vaccine and the Placebo groups only, on D35 for the Librela® group only, on D42 and on D56 for the three group. Blood samples were centrifuged and the serum decanted into three aliquots per sample.
NGF- and cNGF-CMV-Ntt830-E4 VLP total specific IgG antibodies in sera were measured by ELISA. ELISA plates were coated with recombinantly produced canine NGF protein (1.0 μg/mL) or cNGF-CMV-Ntt830-E4 VLP (2.0 μg/mL). Serum samples were pre-diluted 1:100, transferred to the ELISA plates and subjected to serial dilutions 3-fold serial dilution steps with a total of 11 dilutions being tested per serum sample. […] Relative concentrations of anti-NGF IgG antibody in the serum (μg/mL) were calculated by multiplying the EC50 values of the serum with the EC50 values determine for the Bedinvetmab standard. […]

PC12 cells = test: Neurite outgrowth bioassay for authenticity of recombinant NGF; format: cell-based; settings: 5 days, 6.25-100 ng/ml NGF
Procedure: FIG. 15B: PC12 cells were grown for 5 days with recombinant human mature NGF produced in mouse myeloma cells (R&D systems) (black squares) or with canine mature NGF produced in E. coli as described herein (grey circles). Cells were grown in the presence of 100, 50, 25, 12.5 and 6.25 ng/ml of recombinant NGF and the percentage of cells with defined neurite outgrowth determined.

Sequence of human beta-NGF (P01138 122-241): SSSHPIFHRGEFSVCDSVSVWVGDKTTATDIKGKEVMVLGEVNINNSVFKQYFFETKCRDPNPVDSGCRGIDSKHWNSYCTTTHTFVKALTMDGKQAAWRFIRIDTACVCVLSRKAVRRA
T1 sequence (P01138 122-241): as above

## Cc1cnc(NC(=O)C2=C(O)c3ccccc3S(=O)(=O)N2C)s1 [Inflacam®, meloxicam]
[1]; one day after kaolin-induced inflammation, 0.2 mg meloxicam/kg s.c. D43
  mean lameness score as compared to the Placebo group: reduced

## CMV-Ntt830-E4 VLPs: modified CMV VLP of chimeric CMV polypeptide SEQ ID NO:10, four glutamic acid residues (E4) inserted into CMV-Ntt830
[2]
  aggregate formation in presence of NaCl: no evidence of aggregate formation
[3]
  aggregated VLPs after anion exchange chromatography (NAGE loading wells): no evidence of aggregated VLPs
[4]
  melting temperature (melting point): ~57 °C

## bedinvetmab
[5]
  mean titers (dashed line FIG. 24B): 1 µg/mL
  peak antibody titer in serum after administration of bedinvetmab: 6.1 µg/mL
Human beta-NGF; study day 42, study group 1
  peak NGF neutralizing titers: 3.93 µg/mL
Human beta-NGF; study day 56, 21 days after administration
  dogs with levels below the detection limit of the TF-1-based NGF neutralization assay: 6 of 7
[1]; 14 days post kaolin challenge, 7 dogs/group
  mean AUC for lameness scores: 15.36
Canine NGF protein [6]
  NGF-specific IgG GMT: 10.9 µg/mL
hNGF binding to TrkA
  NGF neutralizing antibody titers: 7.85 µg/mL
Canine NGF protein [7]
  NGF-specific IgG GMT (standard equivalent concentration), peak: 3.68 µg/mL

B1: canine mature NGF: recombinant canine mature NGF (SEQ ID NO:30) produced in E. coli, with C-terminal GCG motif (SEQ ID NO:31) or His-tag (SEQ ID NO:33) (protein)
chain: SSSHPVFHRGEFSVCDSVSVWVGDKTTATDIKGKEVMVLGEVNINNSVFKQYFFETKCRDPTPVDSGCRGIDSKHWNSYCTTTHTFVKALTMDGKQAAWRFIRIDTACVCVLSRKAGRRAG
modifications: C-terminal GCG motif or His-tag
PC12 cells
  activity at inducing neurite outgrowth compared with commercial mature NGF (R&D systems): similarly active
